Molecules are shown by their SMILES. Like-named read-outs stand apart in the source and are kept apart here.

This experiment has as its system gastric acid secretion. The experiment can be described thus: Acute gastric fistula rat test: inhibition of gastric acid secretion (Total Acid Output). The experiment is classed as in vivo, Female Sprague-Dawley rats. To be noted: read-out: ED50 Acute Gastric Fistula (dose required to produce an average of 50% inhibition in Total Acid Output versus controls). On the procedure:
The compounds of the invention of formula (I) are useful for the inhibition of gastric acid secretion as measured by the following test. Female Sprague-Dawley rats are fasted twenty-four hours before testing and are given water ad libidum while being kept in individual cages. On the day of testing, the rats are weighed within a range of ±20 grams.
Surgery is carried out under light ether anesthesia. As soon as the rat is anesthetized its teeth are removed and a mid-line incision is made on the abdomen about 11/2 inches in length and the stomach and duodenum are exposed. If at this point the stomach is filled with food or fecal material, the rat is discarded. If the condition of the stomach is acceptable, a purse string stitch is placed on the fundic portion of the stomach with a suture, taking care not to pierce any blood vessels in the area. A small nick is then made into the stomach in the center of the purse string, and a cannula, consisting of a small vinyl tube with a flange on one end, is put into the stomach, and the purse string stitch is closed tightly around the flange. The test compound is administered either intraduodonally (i.d.) immediately after surgery or orally (p.o.) one hour prior to surgery at doses generally ranging from about 0.25 to about 160 mg/kg in a volume of 0.5 ml/100 grams rat. Control rats receive the test vehicle, 0.5% aqueous hydroxypropyl methyl cellulose.
After surgery and, in the case of i.d. administration, after administration of the test compound, the abdominal wall and skin are closed simultaneously with three or four 18 mm wound clips and a collecting tube is placed on the cannula. Each rat is then placed in a box in which a longitudinal slit has been made to allow the cannula to hang freely and to allow the rat to move about unencumbered. After the rat has been allowed to stabilize for thirty minutes, the collection tube on the cannula is discarded and replaced with a clean tube to receive the gastric juice. Collections are made one hour after stabilization.
The sample of gastric contents collected is drained into a centrifuge tube and centrifuged to pack down the sediment. The volume is read and a 1 ml aliquot of the supernatant is put into a beaker containing 20 ml of distilled water and is titrated to pH 7 using 0.01N sodium hydroxide. Results are determined for Volume, Titratable Acid and Total Acid Output, where Volume equals total ml of gastric juice minus sediment; Titratable Acid (meq/1) equals amount of 0.01N sodium hydroxide needed to titrate the acid to pH 7; and Total Acid Output equals Titratable Acid times Volume. Results are reported as the ED50 dose (mg/kg required to produce an average of 50% inhibition in Total Acid Output versus controls in the animals tested for a particular compound) and as percent inhibition.

Where [1] appears, read: po, one hour prior to surgery, 1 h collection after 30 min stabilization.

The ED50 is the dose at which the effect has come halfway, by size or by number of responders. For `C(=NCc1ccco1)N1CCC(C(c2ccccc2)c2ccccc2)CC1` [Example 1, 4-(Diphenylmethyl)-1-[(2-furanylmethyl)iminomethyl]piperidine (E)-2-butenedioate (1:1) hydrate (5:2)], under setting [1], the ED50 stood at 6.91 mg/kg.

`C(=NCCc1ccncc1)N1CCC(C(c2ccccc2)c2ccccc2)CC1` [Example 6, 4-Diphenylmethyl-1-[[2-(4-pyridinyl)ethyl]iminomethyl]piperidine 2-naphthalenesulfonate hydrate (4:4:3)]: the ED50 under setting [1] was 18.8 mg/kg.

For `C(=NCCc1c[nH]c2ccccc12)N1CCC(C(c2ccccc2)c2ccccc2)CC1` [Example 2, N-(4-Diphenylmethyl-1-piperidinyl)-methylene-3-1H-indoleethaneamine monohydroiodide], the ED50 (ip, compound administered intraperitoneally (footnote *)) turned out to be 4.34 mg/kg.

With `C(=NCc1cccs1)N1CCC(C(c2ccccc2)c2ccccc2)CC1` [Example 4, 4-(Diphenylmethyl)-1-[(2-thiophenemethyl)imino]methylpiperidine (E)-2-butenedioate (1:1) hydrate (2:1)], the ED50 under setting [1] is 6.59 mg/kg.

Take `C(=NCCc1ccccn1)N1CCC(C(c2ccccc2)c2ccccc2)CC1` [Example 5, 4-(Diphenylmethyl-1[[2-(2-pyridinyl)ethyl]iminomethyl]piperidine (E)-2-butenedioate (1:1)]: the ED50 under setting [1] is 3.47 mg/kg.

As to `Cn1cccc1CCN=CN1CCC(C(c2ccccc2)c2ccccc2)CC1.O=C(O)/C=C/C(=O)O` [Example 3, 4-Diphenylmethyl-1-[N-[(1-methyl-1H-pyrrol-2-yl)ethyl]-iminomethyl]piperidine (E)-2-butenedioate], the ED50 under setting [1] stood at 3.61 mg/kg.

The values are drawn from patent publication US4528293A, “Heteroaromatic derivatives of iminomethyl piperidines and use to inhibit gastric acid secretion” (McNeilab, Inc., priority 1983, dated 1985).
